Laboratory results: patent publication US11053234B2 (GlaxoSmithKline Intellectual Property Development Limited, priority 2016, dated 2021)

How the values were obtained:
[1] = target: T1, haematopoietic prostaglandin D synthase (H-PGDS) (Homo sapiens, UniProt O60760); experiment: H-PGDS RapidFire high throughput mass spectrometry assay (conversion of PGH2 to PGD2); assay type: biochemical; details: 10 nM H-PGDS, PGH2 formed in situ by COX-2 from arachidonic acid; read-out: Potency Range (mean pIC50) (converted)
T1 construct: Full length human H-PGDS cDNA (Invitrogen Ultimate ORF 10H13026) was amplified by PCR; 6-His (N); TEV protease cleavage site (N); made in house; host or cells: E. coli BL21 (DE3*), vector pET22b+
Outline: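 PGH2 substrate generated in situ by COX-2 (full-length human, FLAG-tagged, Sf9-expressed) from arachidonic acid at ˜10 μM, then converted by full-length human His-tagged H-PGDS (E. coli-expressed). RapidFire SPE–triple quadrupole MS measured PGD2 against PGF2α as substrate surrogate to give percent conversion.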

male C57BI/6N mice = experiment: In vivo assay for functional response to muscle injury (eccentric contraction-induced muscle fatigue); set-up: species or system mouse; details: vs vehicle, FIG. 1
From the text: In Vivo Assays for Functional Response to Muscle Injury
Under anesthesia, the right hind limb of a mouse is restrained at the knee and the foot attached to a motorized footplate/force transducer. Needle electrodes are inserted into the upper limb, either side of the sciatic nerve and a current sufficient to elicit a maximal muscle contraction is applied. Muscle tension is produced by moving the footplate to lengthen the plantarflexor muscles while the limb is under maximal stimulation. This is repeated 60 times to fatigue the muscles of the lower limb. Anesthesia, limb immobilization and limb stimulation are then repeated at regular intervals to measure maximal isometric force in the recovering limb. 7 to 9 animals are tested for each test condition.

normal mice = experiment: in vivo assay for muscle function following limb muscle injury; details: FIG. 1

T1 sequence (O60760 whole entry): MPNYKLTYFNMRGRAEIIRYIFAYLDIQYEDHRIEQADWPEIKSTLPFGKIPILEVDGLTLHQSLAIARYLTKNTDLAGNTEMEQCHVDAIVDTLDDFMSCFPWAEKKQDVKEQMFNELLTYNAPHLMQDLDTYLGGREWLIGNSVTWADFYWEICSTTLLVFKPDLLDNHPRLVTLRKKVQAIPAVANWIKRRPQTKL

Compound	IC50 [1] [nM]	also measured
CC(C)(O)[C@H]1CC[C@H](NC(=O)N2CC(Oc3cc(F)cc4scnc34)C2)CC1 [Example 141, 3-((6-Fluorobenzo[d]thiazol-4-yl)oxy)-N-((trans)-4-(2-hydroxypropan-2-yl)cyclohexyl)azetidine-1-carboxamide]	10 to 79.4	kinetics of recovery of maximal isometric force after eccentric contraction injury (male C57BI/6N mice; PO 3, 10 and 30 mg/kg BID beginning 10 min prior to eccentric contraction challenge): acceleration in the kinetics of recovery; initial magnitude of the injury, isometric limb force 24-hours following protocol initiation (male C57BI/6N mice; PO 3, 10 and 30 mg/kg BID, 24 hours): reduced the initial magnitude of the injury; functional repair dose response curves of H-PGDS inhibition following limb muscle injury (normal mice): protection and acceleration of functional repair
Cn1nnnc1NC(=O)[C@H]1C[C@H](Oc2cc(F)ccc2OC(F)F)C1 [Example 3, (trans)-3-(2-(Difluoromethoxy)-5-fluorophenoxy)-N-(1-methyl-1H-tetrazol-5-yl)cyclobutanecarboxamide]	100 to 1000	
O=C(NC1CN(c2nccc(Cl)n2)C1)[C@H]1C[C@H](Oc2cc(F)ccc2OC(F)F)C1 [Example 7, (trans)-N-(1-(4-Chloropyrimidin-2-yl)azetidin-3-yl)-3-(2-(difluoromethoxy)-5-fluorophenoxy)cyclobutanecarboxamide]	< 10	
CCOC(=O)NC12CC(NC(=O)[C@H]3C[C@H](Oc4cccc5scnc45)C3)(C1)C2 [Example 319, Ethyl (3-((trans)-3-(benzo[d]thiazol-4-yloxy)cyclobutane-1-carboxamido)bicyclo[1.1.1]pentan-1-yl)carbamate]	10 to 79.4	
O=C(NC1CCN(C(=O)OCc2ccccc2)CC1)N1CC(Oc2cccc3scnc23)C1 [Example 89, Benzyl 4-(3-(benzo[d]thiazol-4-yloxy)azetidine-1-carboxamido)piperidine-1-carboxylate]	10 to 79.4	
Cn1nc(C2CC2)cc1NC(=O)[C@H]1C[C@H](Oc2cccc3cccnc23)C1 [Example 214, (trans)-N-(3-Cyclopropyl-1-methyl-1H-pyrazol-5-yl)-3-(quinolin-8-yloxy)cyclobutanecarboxamide]	100 to 1000	
CC(=O)c1csc(NC(=O)N2CC(Oc3cccc4scnc34)C2)n1 [Example 62, N-(4-Acetylthiazol-2-yl)-3-(benzo[d]thiazol-4-yloxy)azetidine-1-carboxamide]	10 to 79.4	
O=C(NC1CCCOC1)N1CC(Oc2cccc3scnc23)C1 (racemic) [Example 90, Racemic 3-(Benzo[d]thiazol-4-yloxy)-N-(tetrahydro-2H-pyran-3-yl)azetidine-1-carboxamide]	100 to 1000	
O=C(Nc1nc(COC(=O)[C@H]2C[C@H](Oc3cc(F)ccc3OC(F)F)C2)cs1)[C@H]1C[C@H](Oc2cc(F)ccc2OC(F)F)C1 [Example 13, (trans)-(2-((trans)-3-(2-(Difluoromethoxy)-5-fluorophenoxy)cyclobutanecarboxamido)thiazol-4-yl)methyl 3-(2-(difluoromethoxy)-5-fluorophenoxy)cyclobutanecarboxylate]	100 to 1000	
CC(C)(O)[C@H]1CC[C@H](NC(=O)[C@H]2C[C@H](Oc3cccc4cncnc34)C2)CC1 [Example 296, (trans)-N-((trans)-4-(2-Hydroxypropan-2-yl)cyclohexyl)-3-(quinazolin-8-yloxy)cyclobutanecarboxamide]	100 to 1000	
O=C1Nc2ccccc2C1NC(=O)[C@H]1C[C@H](Oc2cc(F)ccc2OC(F)F)C1 (mixture of isomers) [Example 24, Racemic (trans)-3-(2-(Difluoromethoxy)-5-fluorophenoxy)-N-(2-oxoindolin-3-yl)cyclobutanecarboxamide]	10 to 79.4	
N#Cc1cnc(NC(=O)[C@H]2C[C@H](Oc3cccc4ccoc34)C2)s1 [Example 261, (trans)-3-(Benzofuran-7-yloxy)-N-(5-cyanothiazol-2-yl)cyclobutanecarboxamide]	10 to 79.4	
O=C(NC1CCCCC1)N1CC(Oc2cccc3scnc23)C1 [Example 64, 3-(Benzo[d]thiazol-4-yloxy)-N-cyclohexylazetidine-1-carboxamide]	100 to 1000	
COc1cncc(NC(=O)N2CC(Oc3cccc4scnc34)C2)c1 [Example 323, 3-(Benzo[d]thiazol-4-yloxy)-N-(5-methoxypyridin-3-yl)azetidine-1-carboxamide]	10 to 79.4	
CCc1cccc(O[C@H]2C[C@H](C(=O)N[C@H]3CC[C@H](C(C)(C)O)CC3)C2)c1 [Example 285, (trans)-3-(3-Ethylphenoxy)-N-((trans)-4-(2-hydroxypropan-2-yl)cyclohexyl)cyclobutanecarboxamide]	100 to 1000	
CC(C)(O)[C@H]1CC[C@H](NC(=O)[C@H]2C[C@H](Oc3ccccc3OC(F)(F)F)C2)CC1 [Example 259, (trans)-N-((trans)-4-(2-Hydroxypropan-2-yl)cyclohexyl)-3-(2-(trifluoromethoxy)phenoxy)cyclobutanecarboxamide]	100 to 1000	
CC(C)(O)[C@H]1CC[C@H](NC(=O)N2CC(Oc3cccc4ccoc34)C2)CC1 [Example 260, 3-(Benzofuran-7-yloxy)-N-((trans)-4-(2-hydroxypropan-2-yl)cyclohexyl)azetidine-1-carboxamide]	10 to 79.4	
O=C(NC1CN(c2ccccn2)C1)[C@H]1C[C@H](Oc2cc(F)cc3scnc23)C1 [Example 137, (trans)-3-((6-Fluorobenzo[d]thiazol-4-yl)oxy)-N-(1-(pyridin-2-yl)azetidin-3-yl)cyclobutanecarboxamide]	10 to 79.4	
O=C(Nc1ccn[nH]1)[C@H]1C[C@H](Oc2cccc3scnc23)C1 [Example 301]	100 to 1000	
